Source: patent US9302999B2, “Substituted triazoles as herbicides” (E. I. DU PONT DE NEMOURS AND COMPANY, priority 2012, dated 2016)

Experiments:
Assay type in all cases: in vivo
corn (Zea mays) = assay: Test E pre-/postemergence: corn; details: scale 0 to 100
Method in brief: (§1)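 Preemergence: seeds sown in silt loam soil and sprayed with compound in non-phytotoxic solvent containing surfactant. Postemergence: plants grown in peat/vermiculite medium, treated at 2–18 cm (1- to 4-leaf stage). Greenhouse 14–21 days; visual rating vs untreated controls, 0 (no effect) to 100 (complete control).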

soybean (Glycine max) = assay: Test E pre-/postemergence: soybean; details: scale 0 to 100
Method in brief: as §1

[1] = system: poinsettia, wild (wild poinsettia, Euphorbia heterophylla); assay: Test E pre-/postemergence: poinsettia, wild; details: scale 0 to 100
Method in brief: as §1

[2] = system: waterhemp (common waterhemp, Amaranthus rudis); assay: Test E pre-/postemergence: waterhemp; details: scale 0 to 100
Method in brief: as §1

[3] = system: smartweed (ladysthumb smartweed, Polygonum persicaria); assay: Test E pre-/postemergence: smartweed; details: Postemergence, scale 0 to 100
Method in brief: as §1

[4] = system: surinam grass (Brachiaria decumbens); assay: Test E pre-/postemergence: surinam grass; details: Preemergence, scale 0 to 100
Method in brief: as §1

[5] = system: panicum, fall (fall panicum, Panicum dichotomiflorum); assay: Test E pre-/postemergence: panicum, fall; details: scale 0 to 100
Method in brief: as §1

[6] = system: goosegrass (Eleusine indica); assay: Test E pre-/postemergence: goosegrass; details: Preemergence, scale 0 to 100
Method in brief: as §1

[7] = system: johnsongrass (Sorghum halepense); assay: Test E pre-/postemergence: johnsongrass; details: Preemergence, scale 0 to 100
Method in brief: as §1

[8] = system: barnyardgrass (Echinochloa crus-galli); assay: Test E pre-/postemergence: barnyardgrass; details: scale 0 to 100
Method in brief: as §1

[9] = system: sandbur (southern sandbur, Cenchrus echinatus); assay: Test E pre-/postemergence: sandbur; details: scale 0 to 100
Method in brief: as §1

[10] = system: field bindweed (Convolvulus arvensis); assay: Test E pre-/postemergence: field bindweed; details: scale 0 to 100
Method in brief: as §1

[11] = system: cocklebur (common cocklebur, Xanthium strumarium); assay: Test E pre-/postemergence: cocklebur; details: Preemergence, scale 0 to 100
Method in brief: as §1

[12] = system: morningglory (Ipomoea coccinea); assay: Test E pre-/postemergence: morningglory; details: Preemergence, scale 0 to 100
Method in brief: as §1

[13] = system: nightshade (eastern black nightshade, Solanum ptycanthum); assay: Test E pre-/postemergence: nightshade; details: Preemergence, scale 0 to 100
Method in brief: as §1

[14] = system: nutsedge, yellow (yellow nutsedge, Cyperus esculentus); assay: Test E pre-/postemergence: nutsedge, yellow; details: Preemergence, scale 0 to 100
Method in brief: as §1

[15] = system: beggarticks (hairy beggarticks, Bidens pilosa); assay: Test E pre-/postemergence: beggarticks; details: scale 0 to 100
Method in brief: as §1

SMILES: Cc1nn(-c2ccc(C(F)(F)F)cc2)nc1Oc1ccnc(C(F)(F)F)c1 [Compound 120]
- Plant response rating: Corn (corn (Zea mays); Postemergence, 8 g ai/ha): 10
- Plant response rating: Corn (corn (Zea mays); Postemergence, 16 g ai/ha): 10
- Plant response rating: Corn (corn (Zea mays); Postemergence, 31 g ai/ha): 10
- Plant response rating: Corn (corn (Zea mays); Postemergence, 62 g ai/ha): 20
- Plant response rating: Corn (corn (Zea mays); Postemergence, 125 g ai/ha): 20
- Plant response rating: Corn (corn (Zea mays); Preemergence, 16 g ai/ha): 0
- Plant response rating: Corn (corn (Zea mays); Preemergence, 62 g ai/ha): 5
- Plant response rating: Corn (corn (Zea mays); Preemergence, 125 g ai/ha): 10
- Plant response rating: Corn (corn (Zea mays); Preemergence, 250 g ai/ha): 10
- Plant response rating: Soybean (soybean (Glycine max); Postemergence, 8 g ai/ha): 15
- Plant response rating: Soybean (soybean (Glycine max); Postemergence, 16 g ai/ha): 20
- Plant response rating: Soybean (soybean (Glycine max); Postemergence, 31 g ai/ha): 30
- Plant response rating: Soybean (soybean (Glycine max); Postemergence, 62 g ai/ha): 40
- Plant response rating: Soybean (soybean (Glycine max); Postemergence, 125 g ai/ha): 50
- Plant response rating: Soybean (soybean (Glycine max); Preemergence, 16 g ai/ha): 0
- Plant response rating: Soybean (soybean (Glycine max); Preemergence, 31 g ai/ha): 25
- Plant response rating: Soybean (soybean (Glycine max); Preemergence, 62 g ai/ha): 35
- Plant response rating: Soybean (soybean (Glycine max); Preemergence, 125 g ai/ha): 35
- Plant response rating: Soybean (soybean (Glycine max); Preemergence, 250 g ai/ha): 35
- Plant response rating: Poinsettia, Wild ([1]; Postemergence, 8 g ai/ha): 25
- Plant response rating: Poinsettia, Wild ([1]; Postemergence, 16 g ai/ha): 35
- Plant response rating: Poinsettia, Wild ([1]; Postemergence, 31 g ai/ha): 13
- Plant response rating: Poinsettia, Wild ([1]; Postemergence, 62 g ai/ha): 60
- Plant response rating: Poinsettia, Wild ([1]; Postemergence, 125 g ai/ha): 90
- Plant response rating: Poinsettia, Wild ([1]; Preemergence, 16 g ai/ha): 0
- Plant response rating: Poinsettia, Wild ([1]; Preemergence, 31 g ai/ha): 0
- Plant response rating: Poinsettia, Wild ([1]; Preemergence, 62 g ai/ha): 0
- Plant response rating: Poinsettia, Wild ([1]; Preemergence, 125 g ai/ha): 35
- Plant response rating: Poinsettia, Wild ([1]; Preemergence, 250 g ai/ha): 50
- Plant response rating: Waterhemp ([2]; Postemergence, 8 g ai/ha): 30
- Plant response rating: Waterhemp ([2]; Postemergence, 16 g ai/ha): 50
- Plant response rating: Waterhemp ([2]; Postemergence, 31 g ai/ha): 65
- Plant response rating: Waterhemp ([2]; Postemergence, 62 g ai/ha): 75
- Plant response rating: Waterhemp ([2]; Postemergence, 125 g ai/ha): 75
- Plant response rating: Waterhemp ([2]; Preemergence, 16 g ai/ha): 95
- Plant response rating: Waterhemp ([2]; Preemergence, 31 g ai/ha): 98
- Plant response rating: Waterhemp ([2]; Preemergence, 62 g ai/ha): 100
- Plant response rating: Waterhemp ([2]; Preemergence, 125 g ai/ha): 100
- Plant response rating: Waterhemp ([2]; Preemergence, 250 g ai/ha): 100
- Plant response rating: Smartweed ([3]; 8 g ai/ha): 10
- Plant response rating: Smartweed ([3]; 16 g ai/ha): 10
- Plant response rating: Smartweed ([3]; 125 g ai/ha): 40
- Plant response rating: Surinam Grass ([4]; 16 g ai/ha): 0
- Plant response rating: Surinam Grass ([4]; 31 g ai/ha): 35
- Plant response rating: Surinam Grass ([4]; 62 g ai/ha): 35
- Plant response rating: Surinam Grass ([4]; 125 g ai/ha): 90
- Plant response rating: Surinam Grass ([4]; 250 g ai/ha): 100
- Plant response rating: Panicum, Fall ([5]; Postemergence, 8 g ai/ha): 5
- Plant response rating: Panicum, Fall ([5]; Postemergence, 16 g ai/ha): 10
- Plant response rating: Panicum, Fall ([5]; Postemergence, 31 g ai/ha): 10
- Plant response rating: Panicum, Fall ([5]; Postemergence, 62 g ai/ha): 20
- Plant response rating: Panicum, Fall ([5]; Postemergence, 125 g ai/ha): 25
- Plant response rating: Panicum, Fall ([5]; Preemergence, 16 g ai/ha): 95
- Plant response rating: Panicum, Fall ([5]; Preemergence, 31 g ai/ha): 95
- Plant response rating: Panicum, Fall ([5]; Preemergence, 62 g ai/ha): 100
- Plant response rating: Panicum, Fall ([5]; Preemergence, 125 g ai/ha): 100
- Plant response rating: Panicum, Fall ([5]; Preemergence, 250 g ai/ha): 100
- Plant response rating: Goosegrass ([6]; 16 g ai/ha): 95
- Plant response rating: Goosegrass ([6]; 31 g ai/ha): 100
- Plant response rating: Goosegrass ([6]; 62 g ai/ha): 100
- Plant response rating: Goosegrass ([6]; 125 g ai/ha): 100
- Plant response rating: Goosegrass ([6]; 250 g ai/ha): 100
- Plant response rating: Johnsongrass ([7]; 16 g ai/ha): 15
- Plant response rating: Johnsongrass ([7]; 31 g ai/ha): 15
- Plant response rating: Johnsongrass ([7]; 62 g ai/ha): 15
- Plant response rating: Johnsongrass ([7]; 125 g ai/ha): 35
- Plant response rating: Johnsongrass ([7]; 250 g ai/ha): 65
- Plant response rating: Barnyardgrass ([8]; Postemergence, 8 g ai/ha): 10
- Plant response rating: Barnyardgrass ([8]; Postemergence, 16 g ai/ha): 10
- Plant response rating: Barnyardgrass ([8]; Postemergence, 31 g ai/ha): 20
- Plant response rating: Barnyardgrass ([8]; Postemergence, 62 g ai/ha): 25
- Plant response rating: Barnyardgrass ([8]; Postemergence, 125 g ai/ha): 30
- Plant response rating: Barnyardgrass ([8]; Preemergence, 16 g ai/ha): 0
- Plant response rating: Barnyardgrass ([8]; Preemergence, 31 g ai/ha): 0
- Plant response rating: Barnyardgrass ([8]; Preemergence, 62 g ai/ha): 5
- Plant response rating: Barnyardgrass ([8]; Preemergence, 125 g ai/ha): 25
- Plant response rating: Barnyardgrass ([8]; Preemergence, 250 g ai/ha): 100
- Plant response rating: Sandbur ([9]; Postemergence, 8 g ai/ha): 10
- Plant response rating: Sandbur ([9]; Postemergence, 16 g ai/ha): 10
- Plant response rating: Sandbur ([9]; Postemergence, 31 g ai/ha): 20
- Plant response rating: Sandbur ([9]; Postemergence, 62 g ai/ha): 30
- Plant response rating: Sandbur ([9]; Postemergence, 125 g ai/ha): 35
- Plant response rating: Sandbur ([9]; Preemergence, 16 g ai/ha): 5
- Plant response rating: Sandbur ([9]; Preemergence, 31 g ai/ha): 5
- Plant response rating: Sandbur ([9]; Preemergence, 62 g ai/ha): 5
- Plant response rating: Sandbur ([9]; Preemergence, 125 g ai/ha): 20
- Plant response rating: Sandbur ([9]; Preemergence, 250 g ai/ha): 75
- Plant response rating: Field Bindweed ([10]; Postemergence, 16 g ai/ha): 20
- Plant response rating: Field Bindweed ([10]; Postemergence, 31 g ai/ha): 30
- Plant response rating: Field Bindweed ([10]; Postemergence, 62 g ai/ha): 35
- Plant response rating: Field Bindweed ([10]; Postemergence, 125 g ai/ha): 35
- Plant response rating: Field Bindweed ([10]; Preemergence, 16 g ai/ha): 0
- Plant response rating: Field Bindweed ([10]; Preemergence, 31 g ai/ha): 10
- Plant response rating: Field Bindweed ([10]; Preemergence, 62 g ai/ha): 20
- Plant response rating: Field Bindweed ([10]; Preemergence, 125 g ai/ha): 40
- Plant response rating: Field Bindweed ([10]; Preemergence, 250 g ai/ha): 98
- Plant response rating: Cocklebur ([11]; 16 g ai/ha): 0
- Plant response rating: Cocklebur ([11]; 31 g ai/ha): 0
- Plant response rating: Cocklebur ([11]; 62 g ai/ha): 90
- Plant response rating: Cocklebur ([11]; 125 g ai/ha): 90
- Plant response rating: Morningglory ([12]; 16 g ai/ha): 0
- Plant response rating: Morningglory ([12]; 31 g ai/ha): 30
- Plant response rating: Morningglory ([12]; 62 g ai/ha): 35
- Plant response rating: Morningglory ([12]; 125 g ai/ha): 60
- Plant response rating: Morningglory ([12]; 250 g ai/ha): 60
- Plant response rating: Nightshade ([13]; 16 g ai/ha): 0
- Plant response rating: Nightshade ([13]; 31 g ai/ha): 0
- Plant response rating: Nightshade ([13]; 62 g ai/ha): 80
- Plant response rating: Nightshade ([13]; 125 g ai/ha): 98
- Plant response rating: Nightshade ([13]; 250 g ai/ha): 100
- Plant response rating: Nutsedge, Yellow ([14]; 16 g ai/ha): 0
- Plant response rating: Nutsedge, Yellow ([14]; 31 g ai/ha): 0
- Plant response rating: Nutsedge, Yellow ([14]; 62 g ai/ha): 0
- Plant response rating: Nutsedge, Yellow ([14]; 125 g ai/ha): 15
- Plant response rating: Nutsedge, Yellow ([14]; 250 g ai/ha): 25
- Plant response rating: Beggarticks ([15]; Postemergence, 8 g ai/ha): 10
- Plant response rating: Beggarticks ([15]; Postemergence, 16 g ai/ha): 10
- Plant response rating: Beggarticks ([15]; Postemergence, 31 g ai/ha): 20
- Plant response rating: Beggarticks ([15]; Postemergence, 62 g ai/ha): 30
- Plant response rating: Beggarticks ([15]; Postemergence, 125 g ai/ha): 35
- Plant response rating: Beggarticks ([15]; Preemergence, 16 g ai/ha): 0
- Plant response rating: Beggarticks ([15]; Preemergence, 31 g ai/ha): 0
- Plant response rating: Beggarticks ([15]; Preemergence, 125 g ai/ha): 80
